Results on two compounds are retold here after publication PMC8482815, “Targeting Host Glycolysis as a Strategy for Antimalarial Development” (Frontiers in Cellular and Infection Microbiology, 2021).

One data set relates to P. falciparum strain 3D7. Kind of data set: Plasmodium falciparum growth inhibition assay (Picogreen DNA content, three-day incubation). The data set is classed as cell-based. Particulars: for S.I. + pyruvate (Supplemental Table 4): MetHb EC50 / parasite EC50, with pyruvate; for S.I. - pyruvate (Supplemental Table 4): MetHb EC50 / parasite EC50, without pyruvate; for EC50: Plasmodium falciparum; for S.I. Fold Change (Supplemental Table 4): change in S.I. with versus without pyruvate; for T.I. Fold change: change in T.I. with versus without 1mM pyruvate; for T.I. + pyruvate / T.I. - pyruvate: therapeutic index = [EC50 for MetHb formation]/[EC50 for parasite growth inhibition]; for T.I. + pyruvate: with 1mM pyruvate; for T.I. - pyruvate: without pyruvate. As for the experimental part:
(§1) Banked blood (Saint Louis Children’s Hospital) and fresh blood [healthy donors] was washed and stored at 50% hematocrit at 4°C up to 1 month past the clinical expiration date and collection date, respectively. Parasite strains provided by the Malaria Research and Reference Reagent Resource Center (MR4) as follows: 3D7 (MRA-102); K1 (MRA-159); D10 (MRA-201); and IPC-5202 (MRA-1240). Unless indicated, erythrocytes were cultured as previously described at 2% hematocrit in complete media (incomplete media supplemented with 27mM sodium bicarbonate, 11mM glucose, 5mM HEPES, 1mM sodium pyruvate, 0.37mM hypoxanthine, 0.01mM thymidine, 10µg/mL gentamicin, and 0.5% Albumax I (Thermo-Fisher) under 5% O2/5% CO2/90% N2 atmosphere at 37°C ([Guggisberg et al., 2014]).
Asynchronous cultures diluted to 1% parasitemia in 100μL wells were subjected to drug dilutions, solvent controls, and untreated uninfected erythrocyte controls in technical duplicates. Following a three-day incubation, DNA content was quantified using Picogreen (Life Technologies), as previously described ([Corbett et al., 2004]). Half-maximal effective concentrations (EC50) were determined from nonlinear regression of three biological replicates (GraphPad Prism).

A further data set has as its system human erythrocytes. Kind of data set: Detection and quantification of MetHb formation in cultured erythrocytes. Format: cell-based. Particulars: Homo sapiens, Erythrocyte. As for the experimental part: as §1
MetHb was detected by measuring absorbance in the 630-640nm range, which is specific from other hemoglobin subforms (oxyhemoglobin, deoxyhemoglobin, and carboxyhemoglobin). Supernatants were removed and erythrocyte pellets were fully lysed and diluted, as described above. The absorption peak for oxyhemoglobin (575nm) and MetHb (630nm) were measured and the EC50 of MetHb formation was determined using non-linear regression analysis (GraphPad Prism).

The next data set concerns P. berghei ANKA. The data set is classed as in vivo, Swiss Webster mice. Here is the method: (§2) Groups of five female Swiss-Webster mice were injected intraperitoneally (i.p.) with 10^3 luciferase-expressing P. berghei ANKA parasites ([Franke-Fayard et al., 2008]). Forty-eight hours post infection, mice were injected i.p. daily for five days with either 200µL of 2% methylcellulose/0.5% Tween80, 40mg/kg chloroquine, 100mg/kg HEX, 30mg/kg POM-HEX, or 5mg/kg POM-SF. Enolase inhibitors dosing were selected as approximately 3-fold lower than the maximum acutely tolerated dose for each compound by i.p. injection. Day 7 post-infection, mice were injected with 150mg/kg D-luciferin potassium salt in PBS (GoldBio) and imaged on an IVIS 100 and parasite burden assessed (Xenogen LivingImage).
The glucose mimetic 2-DG and enolase inhibitors POM-HEX, and HEX were evaluated in the P. berghei mouse model of cerebral malarial, as previously described ([Wang et al., 2018]). Briefly, in addition to groups of mice (n = 5) dosed as described above for POM-HEX and HEX, 2-DG was administered to an additional group (n = 5) at 200mg/kg twice daily and all were monitored for survival, parasitemia (blood smear Giemsa), and clinical signs of cerebral malaria (paralysis, deviation of the head, ataxia, convulsions, and coma) over 15 days.

Data set [1] in a line: Pharmacokinetics of HEX in non-human primates (plasma, NMR 31P-1H HSQC). The data set is classed as in vivo, cynomolgus monkeys (Macaca fascicularis). As for the experimental part: (§3) Adult male cynomolgus monkeys (Macaca fascicularis) with weight of 2.5-3.5 kg were used for PK studies (n = 1). To prepare HEX for injection, a stock solution of 150 mg/mL HEX in water with final pH of 7.2-7.4 was prepared. Just prior to injection, this stock was diluted with saline to desired concentration and filtered with 0.22 µm filter. A dose of 100 mg/Kg of HEX was injected subcutaneously in an overnight fasted monkey. Blood samples were collected at the following time points: before injection, 1 hr, 2 hrs, 4 hrs (when food was also given to a monkey), 8 hrs, and 24 hrs after injection. Also, a dose of 400 mg/Kg of HEX was administrated through oral gavage. To compare the PK studies in non-human primates with rodents, a 400 mg/kg dose of HEX was also injected subcutaneously in female mice (n = 1), and blood was collected before, 1 hr, and 2 hrs after injection. HEX concentrations in plasma were measured by using nuclear magnetic resonance (NMR) spectroscopy. Two hundred microliters of plasma were extracted with four hundred microliters of −20°C precooled methanol and incubated in −20°C for 45 minutes followed by spinning down in 4°C at 17,000 × g for 30 min to separate supernatant. The supernatant then was concentrated by speedvac for 4 hours and dissolved in 470 μL D2O (Sigma Aldrich,151882) and 30 μL D2O with 3%TPS as an internal standard (Sigma Aldrich, 450510) for NMR studies. NMR experiments were performed on Bruker Avance III HD 500 MHz spectrometer equipped with cryoprobe and Bruker 300 MHz with broad band observe probe. […] NMR spectra were analyzed using 3.1 version of TopSpin. HEX was quantified in the sample with high concentration of the drug (100 mpk, 1 hr after SC injection) by comparing integrals of HEX and TSP (reference) in 1H spectra. […]

Data set [2] in a line: Pharmacokinetics of HEX in mice (plasma, NMR 31P-1H HSQC). The data set is classed as in vivo. As for the experimental part:
as §3

Details of data set [3]: method as in Lin et al., 2020. Particulars: cynomolgus monkeys, 100 mpk SC; replotted, ref Lin et al., 2020; cited from earlier work.
Data set [4] concerns P. falciparum K1 (chloroquine and sulfadoxine-pyrimethamine resistant). The data set can be described thus: Plasmodium falciparum growth inhibition assay, drug-resistant line K1. Particulars: K1, read-out: EC50 (nM), P. falciparum K1. The data set is classed as cell-based. As for the experimental part: (§4) Banked blood (Saint Louis Children’s Hospital) and fresh blood [healthy donors] was washed and stored at 50% hematocrit at 4°C up to 1 month past the clinical expiration date and collection date, respectively. Parasite strains provided by the Malaria Research and Reference Reagent Resource Center (MR4) as follows: 3D7 (MRA-102); K1 (MRA-159); D10 (MRA-201); and IPC-5202 (MRA-1240). […]
(§5) Asynchronous cultures diluted to 1% parasitemia in 100μL wells were subjected to drug dilutions, solvent controls, and untreated uninfected erythrocyte controls in technical duplicates. Following a three-day incubation, DNA content was quantified using Picogreen (Life Technologies), as previously described ([Corbett et al., 2004]). Half-maximal effective concentrations (EC50) were determined from nonlinear regression of three biological replicates (GraphPad Prism). […]
(§6) Supplemental Table 5. […] Half-maximal inhibitor concentrations (EC50s) were determined for drug resistant malaria parasites and compared to the sensitive 3D7 strain. The respective EC50s are calculated from each of the independent biological replicates using a non-linear regression of the log of the inhibitor concentration with data from each technical replicate normalized to maximal and minimal growth using the software package GraphPad Prism. […]
(§7) means ± s.e.m calculated from three biological replicates.

The test system of data set [5] is P. falciparum D10 (mefloquine resistant). The data set can be described thus: Plasmodium falciparum growth inhibition assay, drug-resistant line D10. Format: cell-based. The conditions noted are these: D10, read-out: EC50 (nM), P. falciparum D10. Here is the method:
as §4, §5, §6, §7

For data set [6], the system named is P. falciparum IPC-5202 (chloroquine and artemisinin resistant). Kind of data set: Plasmodium falciparum growth inhibition assay, drug-resistant line IPC-5202. The data set is classed as cell-based. Particulars: read-out: EC50 (nM), P. falciparum IPC-5202. As for the experimental part: as §4, §5, §6, §7
In data set [7] the test system is luciferase-expressing P. berghei ANKA parasites. Kind of data set: In vivo efficacy against blood stage parasite burden (luciferase imaging). On the set-up: species or system Swiss-Webster mice. Particulars: i.p. daily for five days; 30mg/kg POM-HEX, 5mg/kg POM-SF. As for the experimental part:
as §2

Details of data set [8]: method as in Lin et al., 2020. The conditions noted are these: ref Lin et al., 2020; cited from earlier work.

“Also recorded” adds a separate entry of the source. Where two headings read alike, the source gives them in different places. Some results are limits rather than exact numbers.

For the compound `O=C1C(P(=O)(O)O)CCCN1O` (stereo not drawn) [HEX], in the data set with P. falciparum strain 3D7, the “S.I. + pyruvate (Supplemental Table 4)” value is reported as 27.8, the “S.I. - pyruvate (Supplemental Table 4)” value stood at 26.3, the “S.I. Fold Change (Supplemental Table 4)” value turned out to be 1.1 and the “T.I. Fold change” value stood at 1.1. In the data set with P. falciparum strain 3D7, the “T.I. + pyruvate” value was 27.8 and the T.I. - pyruvate is recorded as 26.3. In addition, the EC50 with P. falciparum strain 3D7 (3D7, read-out: Parasite EC50 - pyruvate) turned out to be 19000 ± 1000 nM. Further, in the data set with P. falciparum strain 3D7 (3D7, read-out: half maximal effective concentrations (EC50s), parasite growth), the EC50 is more than 15000 nM. The “selectivity for antiparasitic activity over erythrocyte toxicity (in words)” value with P. falciparum strain 3D7 (parasite growth versus MetHb formation) is reported as “notably selective”. The EC50 in the data set with human erythrocytes (read-out: MetHb EC50 + pyruvate (Supplemental Table 4)) was more than 500000 nM. Moreover, in the data set with human erythrocytes (read-out: MetHb EC50 - pyruvate), the EC50 was more than 500000 nM. In addition, in the data set with human erythrocytes (read-out: MetHb EC50 - pyruvate (Supplemental Table 4)), the EC50 is more than 500000 nM. Besides, in the data set with P. berghei ANKA (HEX 100 mg/kg daily from day 2, Mantel-Cox), the survival was found to be 14 days. Moreover, the parasitemia in the data set with P. berghei ANKA (d4, blood smear Giemsa, treated from day 2, HEX 100 mg/kg, 2DG 200 mg/kg, control 7.8±3.3%) is 3.5±1.3%. Besides, in the data set with P. berghei ANKA (d6, HEX 100 mg/kg, vehicle 15.0±7.3), the “clinical scores (signs of cerebral malaria)” value is listed as 3.8±2.0. The “mice alive on day 15” value with P. berghei ANKA (n=5, HEX 100 mg/kg, sacrificed due to high parasitemia and elevated clinical score) is “two mice remained alive”. Besides, the half-life in data set [1] (monkey, 100 mg/kg sub-cutaneous, serum/plasma, 100 mg/kg) is recorded as ~ 1 hr. In data set [1] (monkey, 400 mpk by oral gavage), the “oral bioavailability (in words)” value is “orally bioavailable”. In addition, the “time serum concentrations remain above the in vitro EC50 concentrations against Plasmodium” value in data set [1] (non-human primates, 100mg/kg sub-cutaneous) was “at least four hours”. Also, in data set [2] (400 mg/kg dose SC, detection limit ~1 µM), the “HEX concentration in plasma, 2 hr time point” value is reported as “undetectable”. For the same compound, the serum half-life entry in data set [2] (400mg/kg sub-cutaneous) is on record as “minutes”. Moreover, the concentration at 1 hr in data set [2] (female, mouse, plasma, 400 mg/kg dose SC, read-out: HEX concentration in plasma, 1hr after injection) was approximately 170 µM. Also, the “plasma concentrations at 1hr” value in data set [3] is listed as more than 500 µM.
With `CC(C)(C)C(=O)OCOP(=O)(OCOC(=O)C(C)(C)C)C1CCCN(O)C1=O` (stereo not drawn) [POM-HEX], in the data set with P. falciparum strain 3D7, the “S.I. + pyruvate (Supplemental Table 4)” value was determined as 1.5. Moreover, in the data set with P. falciparum strain 3D7, the “S.I. - pyruvate (Supplemental Table 4)” value is on record as 0.4. Besides, the EC50 in the data set with P. falciparum strain 3D7 (3D7, 72 h, P. falciparum growth, presence of 1mM pyruvate, mean ± s.e.m., read-out: Parasite EC50 + pyruvate) was 910 ± 150 nM; in the data set on P. falciparum strain 3D7 (3D7, P. falciparum growth, absence of 1mM pyruvate, mean ± s.e.m., 500 = highest concentration tested, EC50 not resolved, read-out: Parasite EC50 - pyruvate), 2900 ± 640 nM; in [4] it was 1110 ± 530 nM; in [5] it was 1430 ± 540 nM; in data set [6] it was 966 ± 442 nM; with human erythrocytes (MetHb formation, absence of 1mM pyruvate, mean ± s.e.m., 500 = highest concentration tested, EC50 not resolved, read-out: MetHb EC50 - pyruvate), 1200 ± 190 nM. The EC50 with human erythrocytes (MetHb formation, presence of 1mM pyruvate, mean ± s.e.m., 500 = highest concentration tested, EC50 not resolved, read-out: MetHb EC50 + pyruvate) was 1400 ± 110 nM. In the data set on P. falciparum strain 3D7, the “S.I. Fold Change (Supplemental Table 4)” value is recorded as 3.7. Also, the “T.I. Fold change” value in the data set with P. falciparum strain 3D7 is 3.7. Besides, the “T.I. + pyruvate” value in the data set with P. falciparum strain 3D7 came out at 1.5. Moreover, in the data set on P. falciparum strain 3D7, the T.I. - pyruvate worked out at 0.4. Also, the “effect on clinical score, overall survival, cerebral malaria (in words)” value in the data set on P. berghei ANKA (2DG 200 mg/kg, POM-HEX 30 mg/kg) is reported as “no more effective than 2-DG; also recorded: does not prevent cerebral malaria”. Also, the “effect on parasite burden (in words)” value in data set [7] is on record as “does not forestall a lethal parasite burden”. In addition, the “conversion in mouse plasma (in words)” value in data set [8] is on record as “rapidly converted to Hemi-POM-HEX”.
